Values belong to the compound of their own block, whether it stands above or below them.
How the values were obtained:
[1] = target: T1, Nicotinamide phosphoribosyltransferase (Homo sapiens, UniProt P43490); assay: Inhibition of N-terminal GST-tagged human recombinant NAMPT (2 to 491 residues) expressed in Escherichia coli expression system incubated for 30 mins by fluorescence based analysis
MV4-11 = assay: cells; type: functional, cell-based; conditions: Homo sapiens; for IC50: MV4-11, 48 h; for GI50: MV4-11, time 48 hrs
HL-60 [2] = assay: Antiproliferative activity against p53-null human HL-60 cells assessed as inhibition of cell growth incubated for 48 hrs by resazurin dye based fluorescence analysis; type: functional
Kasumi 1 = assay: Antiproliferative activity against human Kasumi 1 cells harboring wild type p53 assessed as induction of cell death incubated for 48 hrs by resazurin dye based fluorescence analysis; type: functional; conditions: read-out: LD50 (the source's name)
[3] = Antiproliferative activity against p53-null human PL-21 cells assessed as induction of cell death incubated for 48 hrs by resazurin dye based fluorescence analysis; type: functional; conditions: read-out: LD50 (the source's name)
[4] = Antiproliferative activity against p53-null human MONO-MAC-1 cells assessed as induction of cell death incubated for 48 hrs by resazurin dye based fluorescence analysis; type: functional; conditions: read-out: LD50 (the source's name)
NB-4 = assay: Antiproliferative activity against p53-null human NB4 cells assessed as induction of cell death incubated for 48 hrs by resazurin dye based fluorescence analysis; type: functional; conditions: read-out: LD50 (the source's name)
HL-60 [5] = assay: Antiproliferative activity against p53-null human HL-60 cells assessed as induction of cell death incubated for 48 hrs in presence of N-(4-(1-benzoylpiperidin-4-yl)butyl)-3-(pyridin-3-yl)acrylamide by resazurin dye based fluorescence analysis; type: functional; conditions: read-out: LD50 (the source's name)
HL-60 [6] = assay: Antiproliferative activity against p53-null human HL-60 cells assessed as induction of cell death incubated for 48 hrs in presence of methyl-4-((1H-pyrrolo[3,2-c]pyridine-2-carboxamido)methyl)benzoate by resazurin dye based fluorescence analysis; type: functional; conditions: read-out: LD50 (the source's name)
Histone deacetylase 1 = Histone deacetylase 1 (Homo sapiens, UniProt Q13547); assay: (§1) Inhibition of C-terminal 6XHis-tagged/FLAG-tagged full length human recombinant HDAC1 (1 to 482 residues) expressed in baculovirus-infected Sf9 cells using Boc-Lys-(acetyl)-AMC as substrate preincubated with enzyme for 1 hr followed by substrate addition and measured after 2 hrs by fluorescence analysis
Histone deacetylase 2 = Histone deacetylase 2 (Homo sapiens, UniProt Q92769); assay: biochemical; type: cell-based, Sf9
[7] = target: Histone deacetylase 3/Nuclear receptor corepressor 2 (HDAC3/NCoR2) (Homo sapiens, UniProt O15379); assay: as §1, with “His-tagged” for “6XHis-tagged/FLAG-tagged full length”, “HDAC3” for “recombinant HDAC1”, “428 residues)/N-terminal GST tagged human NCOR2 (395 to 489” for “482”
[8] = target: T1, Nicotinamide phosphoribosyltransferase; assay: Inhibition of NAMPT (unknown origin)

Histone deacetylase 2, sequence (Q92769 whole entry): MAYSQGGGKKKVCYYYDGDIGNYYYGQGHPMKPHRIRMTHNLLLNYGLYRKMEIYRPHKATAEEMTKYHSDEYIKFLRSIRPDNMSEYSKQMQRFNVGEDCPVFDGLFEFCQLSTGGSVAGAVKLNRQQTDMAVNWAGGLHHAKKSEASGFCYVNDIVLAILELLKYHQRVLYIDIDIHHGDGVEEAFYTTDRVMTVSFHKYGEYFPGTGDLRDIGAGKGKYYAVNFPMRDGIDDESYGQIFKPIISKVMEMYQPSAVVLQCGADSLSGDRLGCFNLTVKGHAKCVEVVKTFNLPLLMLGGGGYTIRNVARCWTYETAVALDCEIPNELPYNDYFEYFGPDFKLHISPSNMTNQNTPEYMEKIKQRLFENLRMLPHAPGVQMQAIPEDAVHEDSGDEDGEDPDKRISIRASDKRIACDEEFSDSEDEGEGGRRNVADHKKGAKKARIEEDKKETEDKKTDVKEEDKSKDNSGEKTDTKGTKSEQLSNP
Histone deacetylase 1, sequence (Q13547 whole entry, the tested form may be a part): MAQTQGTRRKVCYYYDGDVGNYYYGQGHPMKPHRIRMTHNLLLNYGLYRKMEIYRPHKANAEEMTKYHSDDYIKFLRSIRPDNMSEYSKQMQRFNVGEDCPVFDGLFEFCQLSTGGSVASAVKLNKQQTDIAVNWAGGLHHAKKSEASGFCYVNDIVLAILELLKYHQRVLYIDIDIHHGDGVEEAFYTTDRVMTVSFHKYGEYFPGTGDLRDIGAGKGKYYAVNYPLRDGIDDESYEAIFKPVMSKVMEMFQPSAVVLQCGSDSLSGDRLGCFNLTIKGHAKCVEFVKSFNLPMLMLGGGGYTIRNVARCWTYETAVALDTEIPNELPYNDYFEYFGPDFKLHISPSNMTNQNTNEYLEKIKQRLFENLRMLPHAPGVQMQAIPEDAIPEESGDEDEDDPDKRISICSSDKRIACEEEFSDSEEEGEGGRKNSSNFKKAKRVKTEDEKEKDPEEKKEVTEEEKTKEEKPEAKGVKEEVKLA
Histone deacetylase 3/Nuclear receptor corepressor 2 (HDAC3/NCoR2), sequence (O15379 whole entry): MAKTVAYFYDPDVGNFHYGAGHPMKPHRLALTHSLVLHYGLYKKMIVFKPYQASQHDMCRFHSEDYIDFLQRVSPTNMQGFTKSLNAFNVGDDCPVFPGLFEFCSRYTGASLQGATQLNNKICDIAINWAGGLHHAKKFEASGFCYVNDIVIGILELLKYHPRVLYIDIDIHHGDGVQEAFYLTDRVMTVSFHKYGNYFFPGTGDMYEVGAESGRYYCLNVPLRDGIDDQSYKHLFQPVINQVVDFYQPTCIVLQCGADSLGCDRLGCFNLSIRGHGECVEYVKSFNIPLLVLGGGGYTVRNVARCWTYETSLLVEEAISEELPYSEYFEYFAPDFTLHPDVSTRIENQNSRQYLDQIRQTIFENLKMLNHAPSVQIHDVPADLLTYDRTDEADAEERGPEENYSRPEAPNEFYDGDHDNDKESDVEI
Histone deacetylase 3/Nuclear receptor corepressor 2 (HDAC3/NCoR2), sequence (Q9Y618 whole entry, further chain): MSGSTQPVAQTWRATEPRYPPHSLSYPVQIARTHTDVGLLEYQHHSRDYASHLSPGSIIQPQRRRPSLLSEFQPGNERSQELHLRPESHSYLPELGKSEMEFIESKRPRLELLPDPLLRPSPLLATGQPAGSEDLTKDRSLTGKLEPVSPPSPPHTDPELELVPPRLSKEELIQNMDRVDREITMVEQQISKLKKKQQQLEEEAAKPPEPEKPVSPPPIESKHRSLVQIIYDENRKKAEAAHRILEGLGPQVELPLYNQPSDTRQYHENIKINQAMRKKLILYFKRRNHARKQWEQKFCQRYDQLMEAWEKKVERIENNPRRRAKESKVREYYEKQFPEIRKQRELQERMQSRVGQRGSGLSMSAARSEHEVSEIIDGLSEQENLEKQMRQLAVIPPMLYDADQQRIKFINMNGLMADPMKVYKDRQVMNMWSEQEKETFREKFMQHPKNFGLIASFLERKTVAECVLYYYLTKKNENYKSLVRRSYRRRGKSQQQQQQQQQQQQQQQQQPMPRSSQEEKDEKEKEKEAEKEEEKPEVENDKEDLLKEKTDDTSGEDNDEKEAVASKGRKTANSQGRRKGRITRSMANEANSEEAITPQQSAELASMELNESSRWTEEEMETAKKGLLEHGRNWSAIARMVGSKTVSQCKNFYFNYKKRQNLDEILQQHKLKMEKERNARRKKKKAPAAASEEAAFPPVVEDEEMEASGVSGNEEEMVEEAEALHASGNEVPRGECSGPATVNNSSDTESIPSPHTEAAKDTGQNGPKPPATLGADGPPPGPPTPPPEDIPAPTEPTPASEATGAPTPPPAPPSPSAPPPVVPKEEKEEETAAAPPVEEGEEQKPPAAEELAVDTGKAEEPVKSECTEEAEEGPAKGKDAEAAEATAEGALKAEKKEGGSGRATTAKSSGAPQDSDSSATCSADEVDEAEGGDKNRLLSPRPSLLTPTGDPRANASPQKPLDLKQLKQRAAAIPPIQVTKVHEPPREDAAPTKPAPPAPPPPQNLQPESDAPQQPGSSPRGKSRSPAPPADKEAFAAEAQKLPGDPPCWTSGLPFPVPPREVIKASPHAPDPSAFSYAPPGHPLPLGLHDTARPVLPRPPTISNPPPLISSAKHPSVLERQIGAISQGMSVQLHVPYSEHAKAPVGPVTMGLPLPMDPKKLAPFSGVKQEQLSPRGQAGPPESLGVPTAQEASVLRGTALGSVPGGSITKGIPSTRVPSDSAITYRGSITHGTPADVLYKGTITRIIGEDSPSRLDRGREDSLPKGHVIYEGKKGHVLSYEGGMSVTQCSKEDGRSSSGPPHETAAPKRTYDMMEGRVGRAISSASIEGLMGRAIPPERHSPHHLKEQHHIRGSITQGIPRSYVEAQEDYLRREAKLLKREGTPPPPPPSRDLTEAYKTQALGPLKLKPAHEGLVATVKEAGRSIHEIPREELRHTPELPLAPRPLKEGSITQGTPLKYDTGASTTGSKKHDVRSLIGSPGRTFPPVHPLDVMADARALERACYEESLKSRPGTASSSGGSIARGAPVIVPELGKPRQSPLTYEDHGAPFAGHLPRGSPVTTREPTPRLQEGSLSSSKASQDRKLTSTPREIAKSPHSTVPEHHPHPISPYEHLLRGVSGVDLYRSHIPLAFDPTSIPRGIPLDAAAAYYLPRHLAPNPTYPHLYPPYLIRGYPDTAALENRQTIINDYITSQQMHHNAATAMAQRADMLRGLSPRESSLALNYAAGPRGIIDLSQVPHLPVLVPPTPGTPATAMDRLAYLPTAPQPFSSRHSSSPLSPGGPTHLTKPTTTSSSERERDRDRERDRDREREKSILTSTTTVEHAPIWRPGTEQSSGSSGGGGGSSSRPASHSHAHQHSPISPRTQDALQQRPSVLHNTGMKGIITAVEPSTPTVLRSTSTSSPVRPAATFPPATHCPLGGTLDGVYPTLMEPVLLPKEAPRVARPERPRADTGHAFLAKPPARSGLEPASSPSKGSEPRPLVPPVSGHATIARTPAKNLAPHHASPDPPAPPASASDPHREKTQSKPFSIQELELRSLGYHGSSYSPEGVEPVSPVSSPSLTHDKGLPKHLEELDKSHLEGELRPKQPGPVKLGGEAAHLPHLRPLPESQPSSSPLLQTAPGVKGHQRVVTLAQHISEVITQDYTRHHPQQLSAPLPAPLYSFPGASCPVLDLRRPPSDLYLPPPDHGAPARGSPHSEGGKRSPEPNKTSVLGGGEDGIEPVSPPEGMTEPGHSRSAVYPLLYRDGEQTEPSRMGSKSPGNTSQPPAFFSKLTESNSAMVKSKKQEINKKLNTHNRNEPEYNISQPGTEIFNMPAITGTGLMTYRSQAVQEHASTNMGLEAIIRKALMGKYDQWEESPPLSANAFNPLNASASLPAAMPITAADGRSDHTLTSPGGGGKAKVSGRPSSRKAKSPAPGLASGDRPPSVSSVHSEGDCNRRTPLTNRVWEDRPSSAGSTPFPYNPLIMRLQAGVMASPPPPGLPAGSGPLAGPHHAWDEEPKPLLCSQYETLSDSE
T1 sequence (P43490 whole entry, the tested form may be a part): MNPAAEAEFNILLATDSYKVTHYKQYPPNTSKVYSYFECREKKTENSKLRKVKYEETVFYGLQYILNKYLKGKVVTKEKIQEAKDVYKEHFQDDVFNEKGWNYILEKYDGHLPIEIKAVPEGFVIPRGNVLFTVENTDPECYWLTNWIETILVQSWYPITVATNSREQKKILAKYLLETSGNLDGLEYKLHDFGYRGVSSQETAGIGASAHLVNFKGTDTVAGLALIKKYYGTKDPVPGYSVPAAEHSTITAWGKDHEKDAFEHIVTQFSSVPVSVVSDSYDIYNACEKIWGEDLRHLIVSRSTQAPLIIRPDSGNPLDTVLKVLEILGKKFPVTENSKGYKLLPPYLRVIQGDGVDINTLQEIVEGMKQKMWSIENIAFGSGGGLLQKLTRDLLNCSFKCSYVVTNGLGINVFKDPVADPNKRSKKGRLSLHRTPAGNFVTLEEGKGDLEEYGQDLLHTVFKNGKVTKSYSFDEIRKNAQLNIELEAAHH

Compound: CCCNNC(=O)c1ccc(NC(=O)CCCCCCCNC(=O)/C=C/c2cccnc2)cc1
IC50 [1]: > 20000 nM
IC50 (MV4-11): 174 nM

Compound: CCCNNC(=O)c1ccc(CNC(=O)c2cc3ccccc3[nH]2)cc1
GI50 (MV4-11): 37.3 nM
GI50 (HL-60 [2]): 69.6 nM
CC50 (Kasumi 1): 284 nM
CC50 [3]: > 100000 nM
CC50 [4]: > 100000 nM
CC50 (NB-4): > 100000 nM

Compound: CCCNNC(=O)c1ccc(CNC(=O)/C=C/c2ccccc2)cc1
GI50 (MV4-11): 16 nM
GI50 (HL-60 [2]): 121 nM
CC50 (Kasumi 1): > 100000 nM
CC50 [3]: > 100000 nM
CC50 [4]: > 100000 nM
CC50 (NB-4): > 100000 nM
CC50 (HL-60 [5]): 614 nM
CC50 (HL-60 [6]): 67.8 nM

Compound: CCCNNC(=O)c1ccc(CNC(=O)c2cc3cnccc3o2)cc1
IC50 (Histone deacetylase 1): 5.5 nM
IC50 (Histone deacetylase 2): 19.4 nM
IC50 [7]: 1.82 nM

Compound: O=C(CCCCCCC(=O)Nc1ccccc1)NO [VORINOSTAT]
IC50 [1]: > 20000 nM

Compound: CCCNNC(=O)c1ccc(CNC(=O)/C=C/c2ccncc2)cc1
IC50 [1]: > 20000 nM
IC50 (MV4-11): 67.7 nM

Compound: CCCNNC(=O)CCNC(=O)/C=C/c1cccnc1
IC50 (Histone deacetylase 2): > 10000 nM
IC50 [1]: > 20000 nM
IC50 (MV4-11): > 50000 nM

Compound: CCCNNC(=O)c1ccc(CNC(=O)c2cc3ccccc3o2)cc1
IC50 [7]: 0.43 nM

Compound: CCCNNC(=O)c1ccc(NC(=O)CCCCCCNC(=O)/C=C/c2cccnc2)cc1
IC50 [1]: > 20000 nM
IC50 (MV4-11): 52.4 nM

Compound: COC(=O)c1ccc(CNC(=O)c2cc3cnccc3[nH]2)cc1
IC50 (Histone deacetylase 1): > 20000 nM
IC50 (Histone deacetylase 2): > 20000 nM
IC50 [7]: > 20000 nM
IC50 [1]: 6870 nM
IC50 (MV4-11): > 50000 nM

Compound: CCCNNC(=O)CCCCCCNC(=O)/C=C/c1cccnc1
IC50 [1]: 261 nM
IC50 (MV4-11): 434 nM

Compound: CCCNNC(=O)c1ccc(CNC(=O)c2cc3cnccc3s2)cc1
IC50 [7]: 2.01 nM

Compound: CCCNNC(=O)CCCCNC(=O)/C=C/c1cccnc1
IC50 [1]: > 20000 nM
IC50 (MV4-11): 901 nM

Other lines, results leading:

IC50 [1]: > 20000 nM
IC50 (MV4-11): 667 nM
Compound: CCCNNC(=O)CCCCCCCNC(=O)/C=C/c1cccnc1

IC50 (MV4-11): 87.7 nM
Compound: CCCNNC(=O)CCCCCCNC(=O)c1cc2cnccc2[nH]1

IC50 [1]: 489 nM
IC50 (MV4-11): 2190 nM
Compound: CCCNNC(=O)c1ccc(CNC(=O)CCCCCCCNC(=O)/C=C/c2cccnc2)cc1

IC50 [1]: 261 nM
IC50 (MV4-11): 2240 nM
Compound: CCCNNC(=O)c1ccc(CNC(=O)CCCCCCNC(=O)/C=C/c2cccnc2)cc1

IC50 (Histone deacetylase 1): > 10000 nM
IC50 (Histone deacetylase 2): > 10000 nM
IC50 [7]: > 10000 nM
IC50 (MV4-11): 15.3 nM
GI50 (HL-60 [2]): 12.1 nM
Compound: O=C(/C=C/c1cccnc1)NCCCCC1CCN(C(=O)c2ccccc2)CC1 [DAPORINAD]

IC50 [1]: > 20000 nM
IC50 (MV4-11): 85.2 nM
Compound: CCCNNC(=O)c1ccc(CNC(=O)/C=C/c2ccccn2)cc1

IC50 [8]: 5 nM
Compound: Cc1ncsc1C(=O)N1CCC(CCCCNC(=O)c2cc3cnccc3[nH]2)CC1
